In patent publication US9980943B2, “Methods of treating muscular dystrophy” (BOARD OF REGENTS OF THE NEVADA SYSTEM OF HIGHER EDUCATION, …, priority 2013, dated 2018):

What was measured:
Assay type in all cases: cell-based, mouse
[1] = tested on: β-galactosidase in CMV-LacZ C2C12 myotubes; assay: CMV-LacZ secondary screen in C2C12 myotubes (β-Gal stabilizing assay); conditions: C2C12 CMV-LacZ myotubes, fold relative to DMSO
Summary of the method: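 Dose-response runs at 0.5–40 μM (0.5, 1, 5, 10, 20, 40 μM; N=2 per point) used a clonal C2C12 line carrying CMV-LacZ. Cells were assayed as myoblasts or as differentiated myotubes, and β-galactosidase levels were read with the FDG fluorogenic substrate.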

[2] = tested on: β-galactosidase in CMV-LacZ C2C12 myoblasts; assay: CMV-LacZ secondary screen in C2C12 myoblasts (β-Gal stabilizing assay); conditions: CMV-LacZ C2C12 myoblasts
Summary of the method: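 β-gal stabilization was measured in C2C12 myoblasts or myotubes stably transfected with a CMV-driven LacZ construct, using the FDG β-gal assay. Compounds were tested in dose-response at 0.5, 1, 5, 10, 20 and 40 μM, with two replicates per point.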

[3] = tested on: α7 integrin (LacZ reporter in α7+/LacZ myotubes); assay: Myotube α7 integrin FDG assay (Burkin assay in myotubes, 96-well); conditions: myotubes
[4] = tested on: α7 integrin (LacZ reporter in α7βgal+/− myoblasts); assay: Myoblast α7+/LacZ integrin FDG assay (Burkin assay in myoblasts, 96-well); conditions: α7+/LacZ myoblasts, 96-well

O=C(NCCc1ccc(Cl)cc1)C1CCCO1 (stereo not drawn) [MLS001198271-01]
CMV-LACZ in Myotubes, signal relative to DMSO ([1]; 0.5 uM): 0.9933
CMV-LACZ in Myotubes, signal relative to DMSO ([1]; 1 uM): 1.0686
CMV-LACZ in Myotubes, signal relative to DMSO ([1]; 5 uM): 0.9907
CMV-LACZ in Myotubes, signal relative to DMSO ([1]; 10 uM): 0.9957
CMV-LACZ in Myotubes, signal relative to DMSO ([1]; 20 uM): 1.1053
CMV-LACZ in Myotubes, signal relative to DMSO ([1]; 40 uM): 1.0053
CMV-LACZ in Myoblasts (β-galactosidase activity relative to DMSO) ([2]; 0.5 uM): 1.0204
CMV-LACZ in Myoblasts (β-galactosidase activity relative to DMSO) ([2]; 1 uM): 1.0883
CMV-LACZ in Myoblasts (β-galactosidase activity relative to DMSO) ([2]; 5 uM): 1.2105
CMV-LACZ in Myoblasts (β-galactosidase activity relative to DMSO) ([2]; 10 uM): 0.8516
CMV-LACZ in Myoblasts (β-galactosidase activity relative to DMSO) ([2]; 20 uM): 0.9944
CMV-LACZ in Myoblasts (β-galactosidase activity relative to DMSO) ([2]; 40 uM): 1.2089
Burkin Assay in Myotubes, α7 integrin LacZ reporter signal relative to DMSO ([3]; 0.5 uM): 1.0083
Burkin Assay in Myotubes, α7 integrin LacZ reporter signal relative to DMSO ([3]; 1 uM): 0.9334
Burkin Assay in Myotubes, α7 integrin LacZ reporter signal relative to DMSO ([3]; 5 uM): 1.113
Burkin Assay in Myotubes, α7 integrin LacZ reporter signal relative to DMSO ([3]; 10 uM): 0.9856
Burkin Assay in Myotubes, α7 integrin LacZ reporter signal relative to DMSO ([3]; 20 uM): 0.9056
Burkin Assay in Myotubes, α7 integrin LacZ reporter signal relative to DMSO ([3]; 40 uM): 0.8217
Burkin Assay in Myoblasts, signal relative to DMSO ([4]; 0.5 uM): 1.034
Burkin Assay in Myoblasts, signal relative to DMSO ([4]; 1 uM): 1
Burkin Assay in Myoblasts, signal relative to DMSO ([4]; 5 uM): 1.292
Burkin Assay in Myoblasts, signal relative to DMSO ([4]; 10 uM): 1.034
Burkin Assay in Myoblasts, signal relative to DMSO ([4]; 20 uM): 1.088
Burkin Assay in Myoblasts, signal relative to DMSO ([4]; 40 uM): 1.0038

O=C(Cn1nc(-c2ccc(Cl)cc2)ccc1=O)N1CCC2(CC1)OCCO2 [MLS000689492-01]
CMV-LACZ in Myotubes, signal relative to DMSO ([1]; 0.5 uM): 1.0853
CMV-LACZ in Myotubes, signal relative to DMSO ([1]; 1 uM): 1.2400
CMV-LACZ in Myotubes, signal relative to DMSO ([1]; 5 uM): 1.0504
CMV-LACZ in Myotubes, signal relative to DMSO ([1]; 10 uM): 1.0940
CMV-LACZ in Myotubes, signal relative to DMSO ([1]; 20 uM): 1.0444
CMV-LACZ in Myotubes, signal relative to DMSO ([1]; 40 uM): 0.9267
CMV-LACZ in Myoblasts (β-galactosidase activity relative to DMSO) ([2]; 0.5 uM): 0.9363
CMV-LACZ in Myoblasts (β-galactosidase activity relative to DMSO) ([2]; 1 uM): 1.0252
CMV-LACZ in Myoblasts (β-galactosidase activity relative to DMSO) ([2]; 5 uM): 1.0863
CMV-LACZ in Myoblasts (β-galactosidase activity relative to DMSO) ([2]; 10 uM): 0.8653
CMV-LACZ in Myoblasts (β-galactosidase activity relative to DMSO) ([2]; 20 uM): 1.0141
CMV-LACZ in Myoblasts (β-galactosidase activity relative to DMSO) ([2]; 40 uM): 1.0026
Burkin Assay in Myotubes, α7 integrin LacZ reporter signal relative to DMSO ([3]; 0.5 uM): 1.156
Burkin Assay in Myotubes, α7 integrin LacZ reporter signal relative to DMSO ([3]; 1 uM): 1.138
Burkin Assay in Myotubes, α7 integrin LacZ reporter signal relative to DMSO ([3]; 5 uM): 0.9311
Burkin Assay in Myotubes, α7 integrin LacZ reporter signal relative to DMSO ([3]; 10 uM): 0.9292
Burkin Assay in Myotubes, α7 integrin LacZ reporter signal relative to DMSO ([3]; 20 uM): 0.8836
Burkin Assay in Myotubes, α7 integrin LacZ reporter signal relative to DMSO ([3]; 40 uM): 0.7544
Burkin Assay in Myoblasts, signal relative to DMSO ([4]; 0.5 uM): 1.073
Burkin Assay in Myoblasts, signal relative to DMSO ([4]; 1 uM): 0.908
Burkin Assay in Myoblasts, signal relative to DMSO ([4]; 5 uM): 0.94
Burkin Assay in Myoblasts, signal relative to DMSO ([4]; 10 uM): 0.9431
Burkin Assay in Myoblasts, signal relative to DMSO ([4]; 20 uM): 1.083
Burkin Assay in Myoblasts, signal relative to DMSO ([4]; 40 uM): 0.9652

Cc1ccc(NS(=O)(=O)c2ccc(-c3ccc(=O)[nH]n3)o2)c(C)c1 [MLS001116535-01]
CMV-LACZ in Myotubes, signal relative to DMSO ([1]; 0.5 uM): 1.2552
CMV-LACZ in Myotubes, signal relative to DMSO ([1]; 1 uM): 0.8771
CMV-LACZ in Myotubes, signal relative to DMSO ([1]; 5 uM): 1.0648
CMV-LACZ in Myotubes, signal relative to DMSO ([1]; 10 uM): 1.2856
CMV-LACZ in Myotubes, signal relative to DMSO ([1]; 20 uM): 0.9800
CMV-LACZ in Myotubes, signal relative to DMSO ([1]; 40 uM): 1.0011
CMV-LACZ in Myoblasts (β-galactosidase activity relative to DMSO) ([2]; 0.5 uM): 1.0167
CMV-LACZ in Myoblasts (β-galactosidase activity relative to DMSO) ([2]; 1 uM): 1.1779
CMV-LACZ in Myoblasts (β-galactosidase activity relative to DMSO) ([2]; 5 uM): 1.0944
CMV-LACZ in Myoblasts (β-galactosidase activity relative to DMSO) ([2]; 10 uM): 1.0580
CMV-LACZ in Myoblasts (β-galactosidase activity relative to DMSO) ([2]; 20 uM): 1.1815
CMV-LACZ in Myoblasts (β-galactosidase activity relative to DMSO) ([2]; 40 uM): 1.1263
Burkin Assay in Myotubes, α7 integrin LacZ reporter signal relative to DMSO ([3]; 0.5 uM): 0.95
Burkin Assay in Myotubes, α7 integrin LacZ reporter signal relative to DMSO ([3]; 1 uM): 1.003
Burkin Assay in Myotubes, α7 integrin LacZ reporter signal relative to DMSO ([3]; 5 uM): 0.8929
Burkin Assay in Myotubes, α7 integrin LacZ reporter signal relative to DMSO ([3]; 10 uM): 0.8553
Burkin Assay in Myotubes, α7 integrin LacZ reporter signal relative to DMSO ([3]; 20 uM): 0.8993
Burkin Assay in Myotubes, α7 integrin LacZ reporter signal relative to DMSO ([3]; 40 uM): 0.8366
Burkin Assay in Myoblasts, signal relative to DMSO ([4]; 0.5 uM): 1.092
Burkin Assay in Myoblasts, signal relative to DMSO ([4]; 1 uM): 1.111
Burkin Assay in Myoblasts, signal relative to DMSO ([4]; 5 uM): 0.998
Burkin Assay in Myoblasts, signal relative to DMSO ([4]; 10 uM): 0.9386
Burkin Assay in Myoblasts, signal relative to DMSO ([4]; 20 uM): 1.239
Burkin Assay in Myoblasts, signal relative to DMSO ([4]; 40 uM): 1.267
